In PubChem BioAssay (NCI):
Values joined by “and” are separate entries in the source; they are usually repeats but may differ in a detail not shown here. Equal entries are not always repeated.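 Test compounds were applied to cells in 96-well plates for 48 hours at 5 doses. GI50 marks 50% less growth. TGI: total growth inhibition.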

Tests used:
Test in all cases: NCI tumour cell line growth inhibition, 48 h
SK-MEL-5 melanoma = tested on: SK-MEL-5 melanoma
OVCAR-8 ovarian = tested on: OVCAR-8 ovarian
SF-295 CNS = tested on: SF-295 CNS
786-0 renal = tested on: 786-0 renal
NCI-H23 lung = tested on: NCI-H23 lung
MALME-3M melanoma = tested on: MALME-3M melanoma
CCRF-CEM leukemia = tested on: CCRF-CEM leukemia
T-47D breast = tested on: T-47D breast
MDA-MB-231 breast = tested on: MDA-MB-231 breast
HS 578T breast = tested on: HS 578T breast

SMILES	GI50 (SK-MEL-5 melanoma) [nM]	TGI (SK-MEL-5 melanoma) [nM]	GI50 (OVCAR-8 ovarian) [nM]	TGI (OVCAR-8 ovarian) [nM]	GI50 (SF-295 CNS)	TGI (SF-295 CNS) [nM]	GI50 (786-0 renal) [nM]	TGI (786-0 renal) [nM]	GI50 (NCI-H23 lung) [nM]	TGI (NCI-H23 lung) [nM]	GI50 (MALME-3M melanoma) [nM]	TGI (MALME-3M melanoma) [nM]	TGI (CCRF-CEM leukemia) [nM]	GI50 (T-47D breast) [nM]	TGI (T-47D breast) [nM]	GI50 (MDA-MB-231 breast) [nM]	TGI (MDA-MB-231 breast) [nM]	GI50 (CCRF-CEM leukemia) [nM]	GI50 (HS 578T breast) [nM]	TGI (HS 578T breast) [nM]
C[N+](C)(C)c1cc[c]([Sn]([c]2ccc([N+](C)(C)C)cc2)([c]2ccc([N+](C)(C)C)cc2)[c]2ccc([N+](C)(C)C)cc2)cc1	> 100000	> 100000	> 100000	> 100000	> 100000 nM	> 100000	> 100000	> 100000	> 100000	> 100000	> 100000	> 100000	–	–	–	–	–	–	–	–
O=C1C=C2CCCC2C(C(=O)O)(C(=O)O)C1 (configuration not stated)	–	> 100000	–	> 100000	–	> 100000	–	> 100000	–	> 100000	–	> 100000	> 100000	–	–	–	–	–	–	–
COc1ccc2c(c1)/C(=C\c1c(-c3cc(OC)ccc3OC)nc3sccn13)C(=O)N2	–	–	–	–	5310 nM and 18200 nM	44100	561	1780	1470	2830	1380	2970	–	1320	2740	3320	14200	6910	–	–
CCN1C(=O)N(CC)C2C1NN=c1s/c(=C3\C(=O)N(C4CCCC4)c4ccccc43)c(=O)n12 (configuration not stated)	–	–	2120	> 100000	1600 nM	14400	1710	4860	2490	13500	1260	8740	57500	–	–	2200	20600	2020	1010	8770
COc1ccc(/C=C/C(=O)c2c(-c3ccccc3)nn(C)c(=O)c2N2CCOCC2)cc1	–	> 100000	–	> 100000	–	> 100000	–	> 100000	–	> 100000	–	–	> 100000	–	–	–	–	–	–	–
CCOC(=O)c1c(C)nc2c(c1N)/C(=C/c1ccccn1)C(=O)N2Cc1ccccc1	950	1920	1650	> 50000	1900 nM	> 50000	867	1680	1290	4350	937	2200	> 50000	1130	3300	–	–	1560	2820	> 50000
NCCCNc1nc2ccccc2c2c(=O)c3cccc(Cl)c3sc12	1580	2940	–	–	1710 nM	3140	1610	3050	1400	2850	1570	3000	–	–	–	1180	2560	–	–	–
Clc1cccc(CNc2c3ccccc3nc3ccccc23)c1	1720	3130	2410	8930	1510 nM	3080	1660	3200	1730	4930	1610	3020	8770	2000	5060	1910	4750	2310	–	–
